Experimental data as given in US20060160135A1, “SF-1 and LRH-1 modulator development” (priority 2004, published 2006).

How the values were obtained:
SF-1 = conditions: CV-1 cells; cited from earlier work
human SF-1 = target: T1, human SF-1 (Homo sapiens, UniProt Q13285); assay: AlphaScreen coactivator (SRC-1/NCoA1) recruitment to His-tagged SF-1 LBD; assay type: biochemical; conditions: for dose-dependent NCoA1/SRC1 recruitment to SF-1: FIG. 7B, liposome-washed SF-1
T1 construct: For E. coli expression the SF-1 G219-T461 insert was cloned into a modified pET vector; made in house
Source text: However, the lipids binding SF-1 could be partially extracted by washing the proteins with liposomes prepared using phosphatidylcholine (C22 acyl chain length). It was reasoned that such liposomes with long acyl chains could act as a sink for extracted lipids, without binding the receptors themselves. After such washing the coactivator binding by SF-1 was diminished, but could be activated by the addition of phosphatidylethanolamine (FIG. 5A). The PE 16:0 16:1 observed in the crystal structure is unavailable commercially, so it could not be readily obtained. […] (Parks et al., Science, 1999, 284:1365-8; Makishima et al., Science, 1999, 284:1362-5.)
A variety of different methods for detecting molecular interactions can be used. For example, Alpha Screen technology (Perkin Elmer) is suitable to detect the interaction of the receptor with the coactivator fragment. In this case it is suitable to engineer the ligand-binding domain of the SF-1 and LRH-1 as an N-terminally HIS-tagged protein that can bind the acceptor bead (containing Nickel moieties that will bind the HIS tag). The coactivator fragment can be synthesized containing a biotin moiety that will bind the donor bead. In the presence of ‘activating’ compounds the association of the receptor with the co-regulator may be strengthened, whereas the presence of ‘inhibitory’ compounds may destabilize this interaction. Libraries of chemicals, or derivatives, can be quantified for their effects on co-regulator binding.
Thus, in an exemplary implementation, the Alpha Screen Histidine detection (Nickel chelate) kit (Perkin Elmer) is used to detect binding between His-tagged receptor LBD and biotinylated coactivator peptides or fragments. The assay is performed in Costar 384-well white polystyrene plates (Coming Inc.), in a total volume of 20 μL. Compounds to be tested for their abilities to modulate the interaction of nuclear receptor with coactivator are added to the 384-well plate in 1 μL of DMSO or buffer in advance of addition of the receptor and coactivator proteins.
Reactions are initiated in 15 μl containing 50 nM His-tagged nuclear receptor and […] biotin-tagged coactivator fragment, using buffer containing 50 mM Bis-tris HCl (pH 7.0), 50 mM KCl, 0.05% Tween 20, 1 mM DTT, 0.1% BSA. Other buffer variations can be tested to optimize the largest difference in signals obtained using the apo receptor and receptor bound to compounds already determined to bind and activate the receptor. After the protein solutions are added to the compounds, the plate is sealed and incubated at room temp for 2 hours. After incubation, a 5 μL mixture containing streptavidin donor beads (15 μg/ml) and Ni-chelate acceptor beads (15 μg/ml) are added from the Nickel chelate kit. Plates are resealed and incubated in the dark for 2 hours at room temperature and then read in an AlphaFusion reader set at a read time of 1 s/well.
A signal is produced by the binding of coactivator to nuclear receptor that can be detected by the AlphaFusion reader (the binding brings the acceptor beads into close proximity of the donor beads, which allows the acceptor beads to detect the singlet oxygens produced by the donor beads, causing them to emit a light detected by the instrument). Data analysis can be performed using GraphPad Prism (GraphPad Software, Inc.). […]

[1] = target: coactivator fragment (GST-coactivator fusion protein; the filing does not say which); assay: co-expression in E. coli, metal affinity purification of His-tagged LRH-1

T1 sequence (Q13285 219-461): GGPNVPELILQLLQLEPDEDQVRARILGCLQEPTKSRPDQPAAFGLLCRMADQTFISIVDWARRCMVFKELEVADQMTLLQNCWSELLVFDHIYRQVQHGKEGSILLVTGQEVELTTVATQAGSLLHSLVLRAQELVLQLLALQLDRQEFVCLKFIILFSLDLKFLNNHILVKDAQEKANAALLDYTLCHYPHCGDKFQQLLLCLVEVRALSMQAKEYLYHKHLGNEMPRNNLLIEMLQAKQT
T1 sequence (Q15788 595-780 partner limits assumed): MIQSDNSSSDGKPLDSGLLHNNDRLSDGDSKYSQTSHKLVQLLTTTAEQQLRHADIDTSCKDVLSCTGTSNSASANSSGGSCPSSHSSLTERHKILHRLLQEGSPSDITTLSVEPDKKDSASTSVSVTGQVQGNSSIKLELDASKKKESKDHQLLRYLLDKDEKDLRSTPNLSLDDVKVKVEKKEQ

For `C[C@H](CCCC(C)(C)O)[C@H]1CC[C@H]2[C@@H]3CC=C4C[C@@H](O)CC[C@]4(C)[C@H]3CC[C@]12C` [25-hydroxycholesterol], the SF-1-dependent transcriptional activity (SF-1) is listed as “modest increase”.

For `C[C@@H](CO)CCC[C@@H](C)[C@H]1CC[C@H]2[C@@H]3CC=C4C[C@@H](O)CC[C@]4(C)[C@H]3CC[C@]12C` [26-hydroxycholesterol], the SF-1-dependent transcriptional activity (SF-1) is given as “modest increase”.

In the case of `C[C@@H](CO)CCC[C@@H](C)[C@H]1CC[C@H]2[C@@H]3CC=C4C[C@@H](O)CC[C@]4(C)[C@H]3CC[C@]12C` [27-hydroxycholesterol], the SF-1-dependent transcriptional activity (SF-1) is given as “modest increase”.

For `CC/C=C\C/C=C\C/C=C\CCCCCCCC(=O)OC[C@H](COP(=O)(O)OCCN)OC(=O)CCCCCCC/C=C\C/C=C\C/C=C\CC` [PE-18:3, 1,2-dilinolenoyl-sn-glycero-3-phosphoethanolamine], the “activation of wild-type SF-1 to bind NCoA1 as measured by AlphaScreen” value (human SF-1; 50 μM compound, FIG. 7A) was “activates”, the “dose-dependent NCoA1/SRC1 recruitment to SF-1” value (human SF-1) was “Dose-dependent” and the “dose-dependent NCoA1/SRC1 recruitment to SF-1” value (human SF-1; listed as PE 18:3 18:3) was “dose-dependent increase”. It also gave an EC50 (human SF-1; SF-1 protein washed with phosphatidylcholine liposomes, biotinylated GST-SRC-1 fragment) of 30 µM.

In the case of “His-tagged human LRH-1 LBD (S251-A495) E488K (from UniProt O00482-2) (receptor)”, the decrease in coactivator fragment binding compared to the LRH-1-WT protein [1] is reported as 70%.

For phosphatidylethanolamine, the “coactivator binding by SF-1 after liposome washing” value (human SF-1; SF-1 washed with phosphatidylcholine liposomes, then lipid added) was “activated”.
